According to BigSolDB 2.1:

CCCCCCCC(=O)NCC(=O)O
Details | solubility (mole fraction)
in 2-butanone, 273.15 K | 0.0123
in 2-butanone, 278.15 K | 0.0153
in 2-butanone, 283.15 K | 0.0199
in 2-butanone, 288.35 K | 0.0266
in 2-butanone, 293.05 K | 0.0304
in 2-butanone, 298.15 K | 0.0379
in 2-butanone, 303.15 K | 0.0457
in 2-butanone, 308.05 K | 0.0561
in 2-butanone, 313.25 K | 0.0667
in 2-butanone, 317.65 K | 0.0806
in 2-butanone, 323.15 K | 0.0951
in 2-pentanone, 273.15 K | 0.00491
in 2-pentanone, 278.15 K | 0.00666
in 2-pentanone, 283.15 K | 0.00984
in 2-pentanone, 288.35 K | 0.0148
in 2-pentanone, 293.05 K | 0.0178
in 2-pentanone, 298.15 K | 0.0244
in 2-pentanone, 303.15 K | 0.032
in 2-pentanone, 308.05 K | 0.0431
in 2-pentanone, 313.25 K | 0.0552
in 2-pentanone, 317.65 K | 0.0723
in 2-pentanone, 323.15 K | 0.0915
in acetone, 273.15 K | 0.0146
in acetone, 278.15 K | 0.0189
in acetone, 283.15 K | 0.0261
in acetone, 288.35 K | 0.0369
in acetone, 293.05 K | 0.0432
in acetone, 298.15 K | 0.0562
in acetone, 303.15 K | 0.0706
in acetone, 308.05 K | 0.0905
in acetone, 313.25 K | 0.111
in acetone, 317.65 K | 0.14
in acetone, 323.15 K | 0.171
in cyclohexanone, 273.15 K | 0.0112
in cyclohexanone, 278.15 K | 0.0149
in cyclohexanone, 283.15 K | 0.0214
in cyclohexanone, 288.35 K | 0.0315
in cyclohexanone, 293.05 K | 0.0378
in cyclohexanone, 298.15 K | 0.0508
in cyclohexanone, 303.15 K | 0.0656
in cyclohexanone, 308.05 K | 0.0866
in cyclohexanone, 313.25 K | 0.11
in cyclohexanone, 317.65 K | 0.141
in cyclohexanone, 323.15 K | 0.177
in cyclopentanone, 273.15 K | 0.0144
in cyclopentanone, 278.15 K | 0.019
in cyclopentanone, 283.15 K | 0.0269
in cyclopentanone, 288.35 K | 0.039
in cyclopentanone, 293.05 K | 0.0464
in cyclopentanone, 298.15 K | 0.0616
in cyclopentanone, 303.15 K | 0.0789
in cyclopentanone, 308.05 K | 0.103
in cyclopentanone, 313.25 K | 0.129
in cyclopentanone, 317.65 K | 0.164
in cyclopentanone, 323.15 K | 0.203
in ethanol, 273.15 K | 0.0116
in ethanol, 278.15 K | 0.0176
in ethanol, 283.15 K | 0.0266
in ethanol, 288.35 K | 0.0401
in ethanol, 293.05 K | 0.0575
in ethanol, 298.15 K | 0.0833
in ethanol, 303.15 K | 0.119
in ethanol, 308.05 K | 0.168
in ethanol, 313.25 K | 0.237
in ethanol, 317.65 K | 0.314
in ethanol, 323.15 K | 0.447
in ethyl acetate, 273.15 K | 0.00218
in ethyl acetate, 278.15 K | 0.00301
in ethyl acetate, 283.15 K | 0.00455
in ethyl acetate, 288.35 K | 0.00705
in ethyl acetate, 293.05 K | 0.00866
in ethyl acetate, 298.15 K | 0.0121
in ethyl acetate, 303.15 K | 0.0162
in ethyl acetate, 308.05 K | 0.0223
in ethyl acetate, 313.25 K | 0.029
in ethyl acetate, 317.65 K | 0.0389
in ethyl acetate, 323.15 K | 0.0502
in ethyl formate, 273.15 K | 0.0016
in ethyl formate, 278.15 K | 0.00226
in ethyl formate, 283.15 K | 0.00348
in ethyl formate, 288.35 K | 0.00555
in ethyl formate, 293.05 K | 0.00688
in ethyl formate, 298.15 K | 0.00981
in ethyl formate, 303.15 K | 0.0133
in ethyl formate, 308.05 K | 0.0186
in ethyl formate, 313.25 K | 0.0247
in ethyl formate, 317.65 K | 0.0336
in ethyl formate, 323.15 K | 0.0439
in isobutanol, 273.15 K | 0.0204
in isobutanol, 278.15 K | 0.0259
in isobutanol, 283.15 K | 0.0327
in isobutanol, 288.35 K | 0.0412
in isobutanol, 293.05 K | 0.0503
in isobutanol, 298.15 K | 0.0622
in isobutanol, 303.15 K | 0.0762
in isobutanol, 308.05 K | 0.0919
in isobutanol, 313.25 K | 0.112
in isobutanol, 317.65 K | 0.131
in isobutanol, 323.15 K | 0.159
in isopentanol, 273.15 K | 0.0276
in isopentanol, 278.15 K | 0.0347
in isopentanol, 283.15 K | 0.0434
in isopentanol, 288.35 K | 0.0543
in isopentanol, 293.05 K | 0.0657
in isopentanol, 298.15 K | 0.0805
in isopentanol, 303.15 K | 0.0978
in isopentanol, 308.05 K | 0.117
in isopentanol, 313.25 K | 0.142
in isopentanol, 317.65 K | 0.166
in isopentanol, 323.15 K | 0.2
in isopropanol, 273.15 K | 0.0153
in isopropanol, 278.15 K | 0.0193
in isopropanol, 283.15 K | 0.0239
in isopropanol, 288.35 K | 0.0298
in isopropanol, 293.05 K | 0.0362
in isopropanol, 298.15 K | 0.0441
in isopropanol, 303.15 K | 0.0533
in isopropanol, 308.05 K | 0.064
in isopropanol, 313.25 K | 0.0769
in isopropanol, 317.65 K | 0.0895
in isopropanol, 323.15 K | 0.108
in methanol, 273.15 K | 0.0347
in methanol, 278.15 K | 0.0478
in methanol, 283.15 K | 0.0653
in methanol, 288.35 K | 0.0891
in methanol, 293.05 K | 0.117
in methanol, 298.15 K | 0.156
in methanol, 303.15 K | 0.204
in methanol, 308.05 K | 0.263
in methanol, 313.25 K | 0.343
in methanol, 317.65 K | 0.425
in methanol, 323.15 K | 0.555
in methyl acetate, 273.15 K | 0.00203
in methyl acetate, 278.15 K | 0.00288
in methyl acetate, 283.15 K | 0.00448
in methyl acetate, 288.35 K | 0.00718
in methyl acetate, 293.05 K | 0.00895
in methyl acetate, 298.15 K | 0.0128
in methyl acetate, 303.15 K | 0.0174
in methyl acetate, 308.05 K | 0.0245
in methyl acetate, 313.25 K | 0.0327
in methyl acetate, 317.65 K | 0.0444
in methyl acetate, 323.15 K | 0.0586
in n-butanol, 273.15 K | 0.0228
in n-butanol, 278.15 K | 0.0313
in n-butanol, 283.15 K | 0.0425
in n-butanol, 288.35 K | 0.0577
in n-butanol, 293.05 K | 0.0755
in n-butanol, 298.15 K | 0.0993
in n-butanol, 303.15 K | 0.13
in n-butanol, 308.05 K | 0.167
in n-butanol, 313.25 K | 0.217
in n-butanol, 317.65 K | 0.268
in n-butanol, 323.15 K | 0.347
in n-pentanol, 273.15 K | 0.0226
in n-pentanol, 278.15 K | 0.0308
in n-pentanol, 283.15 K | 0.0413
in n-pentanol, 288.35 K | 0.0559
in n-pentanol, 293.05 K | 0.0724
in n-pentanol, 298.15 K | 0.095
in n-pentanol, 303.15 K | 0.123
in n-pentanol, 308.05 K | 0.157
in n-pentanol, 313.25 K | 0.202
in n-pentanol, 317.65 K | 0.249
in n-pentanol, 323.15 K | 0.32
in n-propanol, 273.15 K | 0.0174
in n-propanol, 278.15 K | 0.0254
in n-propanol, 283.15 K | 0.0363
in n-propanol, 288.35 K | 0.0522
in n-propanol, 293.05 K | 0.0715
in n-propanol, 298.15 K | 0.1
in n-propanol, 303.15 K | 0.137
in n-propanol, 308.05 K | 0.185
in n-propanol, 313.25 K | 0.251
in n-propanol, 317.65 K | 0.323
in n-propanol, 323.15 K | 0.439
